# Test results: paper PMC9468151, “Identification of a binding site on soluble RANKL that can be targeted to inhibit soluble RANK-RANKL interactions and treat osteoporosis” (Nature Communications, 2022)
# pEC50, pKd: −log10 of the molar value. Values joined by “and” are separate entries in the source; they are usually repeats but may differ in a detail not shown here. Identical values can stand only once. Like-named read-outs stand apart in the source and are kept apart here.
# Experiments:
# [1] = molecular target: T1, binary-RANKL (L-RANKL, mRANKL mimic) (Rattus norvegicus, UniProt Q9ESE2, D175N); assay: Isothermal titration calorimetry (ITC) with binary-RANKL; assay type: binding; settings: 25 °C, PBS 0.8% DMSO; read-out: ITC KD with binary-RANKL (printed +mRANKL in Fig. 3a)
# T1 construct: (3) mRANKL (sRANKL-GSGS-sRANKL, rat 159-318 aa); His6-sumo (N); made in house; host or cells: Escherichia coli BL21 (DE3)
# Description: ITC titrations were performed on the MicroCal iTC200 system at 25 °C[55]. Working stocks of compound S3-15 were prepared in 100% DMSO at 50 mM and then diluted to 500 μM at PBS with final DMSO concentration at 0.8% (v/v). PBS with 0.8% DMSO was used as ITC buffer. Purified sRANKL or L-RANKL protein was buffer exchanged into same ITC buffer using a Millipore spin column. S3-15 at 500 μM was loaded into a syringe and protein was loaded into an isothermal calorimeter cell. During titration, S3-15 in the […] was injected (2 μL per injection, 25 injections in total, and 180 s between each injection) regularly from a rotating syringe into protein solution in the isothermal calorimeter cell. The sample cell was stirred at 385 rpm. Reference cell power was set to 5 μcal/s. Control experiments were conducted under the same conditions using buffer solution instead of S3-15. Data were analyzed using a one-site binding model in Origin 7.1 software for ITC version 7.0 (MicroCal). The dissociation constant, KD, was calculated according to equation KD = 1/K. All other parameters, K ([…]), N (varying the stoichiometry), ΔH (enthalpy of the reaction), and ΔG ([…] of the reaction) were determined from the titration data.
# mature osteoclasts = assay: Osteoclasts apoptotic activity assay; assay type: cell-based, mouse
# Description: Mature osteoclasts were generated according to “Primary cultures of BMMs and osteoclastogenesis assay”. Mature osteoclasts were treated with or without compounds for 24 h[53]. At the end of incubation, cells were fixed with 4% paraformaldehyde and applied TRAP-staining. Apoptosis and cell death was measured by in situ fluorescence staining with AnnexinV-FITC (Beyotime Biotechnology) and prodidium iodide or DAPI staining flowing by their instructions. TRAP-positive cells, Annexin V, PI, and DAPI were visualized by Leica fluorescence microscopic.
# L-RANKL = molecular target: T2, L-RANKL (Rattus norvegicus, UniProt Q9ESE2, D175N); assay: STD NMR binding assay with L-RANKL; settings: 100 μM protein, 5 mM compound
# T2 construct: (3) mRANKL (sRANKL-GSGS-sRANKL, rat 159-318 aa); His6-sumo (N); made in house; host or cells: Escherichia coli BL21 (DE3)
# Description: For NMR studies, purified sRANKL or L-RANKL protein samples were buffer exchanged into PBS (Gbico, C10010500BT, pH7.4) using a Millipore spin column (1500 × g for 15 min at 4 °C, repeated six times, each time adding fresh PBS and discarding the flow-through). Protein concentration was determined using BCA method according to the procedure of Pierce^TM BCA Protein Assay Kit (Thermo Fisher Scientific). Compound S3-15 powder was dissolved in H2O as a concentration of 10 mM.
# Protein saturation transfer difference (STD) experiments were performed on Bruker Avance III 500 (500 MHz) spectrometer (Columbia University) at 300 K using triple-resonance cryogenic probes optimized for proton detection. All experiments were performed using an independent sample for each experimental measurement as a 500 μL sample in NMR tubes with 100 μM protein and […] S3-15 in final concentration. Uniformly, for STD assay all samples were contained 50 μL protein, 200 μL S3-15 (10 mM in H2O), and 250 μL D2O; for S3-15 two-dimensional spectra reference, samples were 50 μL PBS, 200 μL S3-15 (10 mM in H2O) and 250 μL D2O.
# [2] = tested on: human sRANKL and human OPG; assay: In vitro pull-down assay of sRANKL binding to OPG
# Description: To evaluate whether S3-15 affects the binding of sRANKL or mRANKL to OPG, we did the pull-down assay.
# sRANKL-OPG: 200 ng human sRANKL with his-sumo tag was incubated with Ni gel at 4 °C for 10 min. Then the Ni gel was washed with PBS for 3 times. 500 μL PBS that contains 100 ng Fc tag human OPG. Then S3-15 was treated in different concentration (0, 10, 1 and 0.3 μM). The mixtures were incubating at 4 °C for 30 min. Washed with PBS for 3 times. 500 μL 1% Triton X-100 in PBS was then added at 4 °C. The concentration of OPG was tested by OPG ELISA kit (USCN, China).
# [3] = molecular target: mouse mRANKL and mouse OPG (Mus musculus, UniProt O35235); assay: mRANKL-OPG binding, HEK 293T cells with full length mouse RANKL; assay type: cell-based
# Description: mRANKL-OPG: MC3T3-E1 cells were differentiated by osteoblast differentiation medium (Pythonbio, China) for 2 days. Then cells were exposed to 1 M NaCl for 5 minutes to remove endogenous OPG, washed once in PBS, and fixed with 70% ethanol for 5 minutes at 4 °C. Fixed cells were wash once by PBS and then exposed to PBS that containing 100 ng mouse OPG (Sino, China) or 100 ng mouse OPG with 1 μM S3-15 and incubated for an additional 30 min at 4 °C. Cell layers were washed 2 times with PBS and lysed with 1% triton in PBS. The concentration of OPG in cell lysates were measured with an OPG ELISA kit (USCN, China). Similar proceed were performed using HEK 293 T cells that transfer full length mouse RANKL or human RANKL.
# mouse mRANKL and mouse OPG, sequence (O35235 whole entry): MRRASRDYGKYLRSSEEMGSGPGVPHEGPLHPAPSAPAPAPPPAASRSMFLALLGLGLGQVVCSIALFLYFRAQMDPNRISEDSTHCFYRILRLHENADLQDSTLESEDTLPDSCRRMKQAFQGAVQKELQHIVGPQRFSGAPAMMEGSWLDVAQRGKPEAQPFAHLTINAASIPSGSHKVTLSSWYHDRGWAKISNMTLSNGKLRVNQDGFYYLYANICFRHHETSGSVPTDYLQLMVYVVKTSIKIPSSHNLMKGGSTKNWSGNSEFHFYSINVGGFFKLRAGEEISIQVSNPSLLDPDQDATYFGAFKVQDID
# T1 sequence (Q9ESE2 with tags, fused parts or gaps D175N): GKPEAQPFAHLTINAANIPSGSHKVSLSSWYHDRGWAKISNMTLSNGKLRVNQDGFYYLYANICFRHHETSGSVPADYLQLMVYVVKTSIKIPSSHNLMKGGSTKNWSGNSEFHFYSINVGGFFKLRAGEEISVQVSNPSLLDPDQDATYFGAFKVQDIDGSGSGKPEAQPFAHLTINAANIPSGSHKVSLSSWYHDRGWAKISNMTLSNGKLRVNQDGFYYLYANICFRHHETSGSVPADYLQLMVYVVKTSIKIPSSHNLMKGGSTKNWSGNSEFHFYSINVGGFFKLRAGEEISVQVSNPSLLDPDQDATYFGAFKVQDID
# T2 sequence (Q9ESE2 with tags, fused parts or gaps D175N): as above
smiles,measurement,setting,value
CC(=O)/C(=N\Nc1ccccc1C(=O)O)C(=O)Nc1ccccn1 [S3-15],pKd,[1],3.91
same,pEC50,"mature osteoclasts; Mus musculus, Osteoclast, 24 h treatment, read-out: EC50, apoptosis of mature osteoclasts",6.26
same,dead osteoclast quantification (fig. 6f),"mature osteoclasts; mature osteoclasts, vehicle 41, 55, 67",227 and 290 and 265
same,STD-NMR binding to L-RANKL (mRANKL),L-RANKL,low binding affinity
same,sRANKL-OPG binding signal (fig. S4m),[2],0.6462 and 0.65 and 0.761
same,sRANKL and OPG binding,[2]; 0.3 μM,cannot affects
same,sRANKL-OPG binding signal (fig. S4m),[2]; 0.3,0.7746 and 0.9001 and 1.2775
same,sRANKL and OPG binding,[2]; 10 and 1 μM,significantly suppressed
same,mouse mRANKL and mouse OPG binding,"[3]; 293T cells, 1 μM",no effects
same,mRANKL-OPG binding signal (fig. S4o),[3]; OPG+S3-15,0.9339 and 0.9921 and 0.6577
